Type in all cases: biochemical
In one experiment the target is T1, Jak3 (Homo sapiens, UniProt P52333).
T1 construct: The kinase domain of humanJAK3 was amplified from U937mRNA; His tag (from pFastBac HTb vector) (N); made in house; host or cells: baculovirus; Sf9 insect cells for virus, High Five cells for large-scale production
Description: JAK3 kinase domain assay (ELISA or Alphascreen). The note with it: capacity to inhibit 50% of activity at 50 μM; read-out: Jak3 inhibitory activity. The method in brief:
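The human JAK3 kinase domain was expressed in baculovirus-infected insect cells and nickel-affinity purified; about 1.5 μg was used per reaction. The buffer was 50 mM HEPES pH 7.5, 10 mM MgCl2, 150 mM NaCl, with 10 μM–1 mM ATP and 5 μM biotinylated peptide. Read-out was PY20 anti-phosphotyrosine ELISA or AlphaScreen.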
(In an ELISA, binding on a coated surface is turned into a signal by an enzyme label.)

In the next experiment the target is hck (Homo sapiens, UniProt P08631). Description: hck kinase assay (ELISA or Alphascreen). The note with it: capacity to inhibit 50% of activity at 50 μM; read-out: hck inhibitory activity. The method in brief:
(§1)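 Each kinase used about 1.5 μg affinity-purified PTK domain in 50 mM HEPES pH 7.5, 10 mM MgCl2, 150 mM NaCl and 10 μM–1 mM ATP, with 5 μM biotinylated peptide substrate. Phosphotyrosine was read by ELISA with PY20 on avidin plates or by AlphaScreen beads.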

The next experiment has as its target kdr (Homo sapiens, UniProt P35968). Briefly: kdr kinase assay (ELISA or Alphascreen). Particulars: capacity to inhibit 50% of activity at 50 μM; read-out: kdr inhibitory activity. The method in brief: as §1
In another experiment the target is T2, Jak2 (Homo sapiens, UniProt O60674).
T2 construct: The kinase domain of humanJAK2 was amplified from U937mRNA; His tag (from pFastBac HTc vector) (N); made in house; host or cells: baculovirus; Sf9 insect cells for virus, High Five cells for large-scale production
Briefly: JAK2 kinase domain assay (ELISA or Alphascreen). The note with it: capacity to inhibit 50% of activity at 50 μM; read-out: Jak2 inhibitory activity. The method in brief:
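Recombinant His-tagged human JAK2 kinase domain, expressed in High Five insect cells via baculovirus, ~1.5 μg per well in 50 mM HEPES pH 7.5, 10 mM MgCl2, 150 mM NaCl, 10 μM-1 mM ATP, 5 μM biotinylated peptide substrate. Phosphotyrosine read by anti-pTyr PY20 ELISA or Alphascreen.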

In a further experiment the target is T3, abl (Homo sapiens, UniProt P00519).
T3 sequence (P00519 242-493 limits assumed): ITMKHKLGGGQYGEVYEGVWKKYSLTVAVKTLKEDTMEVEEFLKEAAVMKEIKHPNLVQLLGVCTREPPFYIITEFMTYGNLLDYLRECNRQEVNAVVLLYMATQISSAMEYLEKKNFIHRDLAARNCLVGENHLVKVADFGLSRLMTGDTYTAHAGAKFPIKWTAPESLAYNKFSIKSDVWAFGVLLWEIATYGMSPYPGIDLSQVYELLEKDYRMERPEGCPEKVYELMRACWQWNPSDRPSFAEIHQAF
Briefly: abl kinase assay (ELISA or Alphascreen). Particulars: capacity to inhibit 50% of activity at 50 μM; read-out: abl inhibitory activity. The method in brief: as §1

T2 sequence (O60674 849-1124 limits assumed): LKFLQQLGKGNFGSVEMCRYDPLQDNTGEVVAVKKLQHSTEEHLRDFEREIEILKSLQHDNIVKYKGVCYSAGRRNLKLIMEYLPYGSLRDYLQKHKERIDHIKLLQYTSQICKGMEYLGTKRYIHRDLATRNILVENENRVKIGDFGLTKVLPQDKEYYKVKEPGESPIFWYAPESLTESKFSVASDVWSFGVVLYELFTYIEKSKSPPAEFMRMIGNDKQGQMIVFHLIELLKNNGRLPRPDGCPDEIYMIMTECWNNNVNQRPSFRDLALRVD
kdr, sequence (P35968 834-1162 limits assumed, species assumed): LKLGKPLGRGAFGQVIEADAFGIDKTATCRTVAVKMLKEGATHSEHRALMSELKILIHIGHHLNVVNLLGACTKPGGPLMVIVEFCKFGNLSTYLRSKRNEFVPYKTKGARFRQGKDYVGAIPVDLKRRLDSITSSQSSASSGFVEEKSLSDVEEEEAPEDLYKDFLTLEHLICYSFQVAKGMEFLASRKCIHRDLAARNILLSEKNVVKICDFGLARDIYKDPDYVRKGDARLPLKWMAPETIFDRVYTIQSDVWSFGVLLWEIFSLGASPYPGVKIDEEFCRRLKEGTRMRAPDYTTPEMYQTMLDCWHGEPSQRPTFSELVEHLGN
hck, sequence (P08631 262-515 limits assumed, species assumed): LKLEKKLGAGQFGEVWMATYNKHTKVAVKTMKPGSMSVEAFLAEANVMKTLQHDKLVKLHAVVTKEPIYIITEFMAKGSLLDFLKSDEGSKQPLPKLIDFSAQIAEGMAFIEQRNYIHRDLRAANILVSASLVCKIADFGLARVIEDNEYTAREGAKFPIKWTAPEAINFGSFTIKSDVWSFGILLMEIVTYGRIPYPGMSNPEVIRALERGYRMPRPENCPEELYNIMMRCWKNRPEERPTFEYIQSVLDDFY
T1 sequence (P52333 822-1111 limits assumed): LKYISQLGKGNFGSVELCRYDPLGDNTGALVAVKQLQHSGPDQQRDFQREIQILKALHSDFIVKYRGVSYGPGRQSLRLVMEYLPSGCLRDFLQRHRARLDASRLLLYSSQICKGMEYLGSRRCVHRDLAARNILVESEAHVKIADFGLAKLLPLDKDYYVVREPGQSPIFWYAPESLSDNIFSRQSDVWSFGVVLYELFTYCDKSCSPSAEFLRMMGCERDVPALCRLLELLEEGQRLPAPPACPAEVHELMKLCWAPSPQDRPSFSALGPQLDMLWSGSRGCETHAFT

`C[C@@H](Nc1cncc(-n2cnc3ccccc32)n1)c1ccccc1`: the inhibition at 50 µM was less than 50% on Jak3; greater than 50% at hck; greater than 50% at kdr; greater than 50% on Jak2; greater than 50% at abl.
In the case of `c1ccc(CNc2cncc(-n3ccnc3)n2)cc1`, the inhibition at 50 µM at Jak3 was less than 50%; on hck, greater than 50%; at kdr, less than 50%; at Jak2, less than 50%; at abl, greater than 50%.
Regarding `C[C@H](Nc1cncc(-n2cnc(-c3ccccc3)c2)n1)c1ccccc1`, the inhibition at 50 µM at Jak3 was greater than 50%; on hck, greater than 50%; on kdr, less than 50%; at Jak2 it was less than 50%; at abl it was less than 50%.
Take `C[C@H](Nc1cncc(-n2cnc3ccc(C(N)=O)cc32)n1)c1ccccc1`: the inhibition at 50 µM was less than 50% at Jak3; greater than 50% at hck; greater than 50% at kdr; greater than 50% at Jak2; greater than 50% at abl.
For the compound `C[C@H](Nc1cncc(-n2cnc3cc(C(N)=O)ccc32)n1)c1ccccc1`, the inhibition at 50 µM at Jak3 was less than 50%; at hck it was greater than 50%; on kdr, greater than 50%; on Jak2 it was greater than 50%; on abl it was greater than 50%.
As for `C[C@H](Nc1cncc(-n2cnc3ccc(C(=O)N4CCOCC4)cc32)n1)c1ccccc1`, the inhibition at 50 µM at Jak3 was less than 50%; at hck it was greater than 50%; on kdr, greater than 50%; on Jak2, less than 50%; at abl, greater than 50%.
Consider `C[C@H](Nc1cncc(-n2cnc3cc(C(=O)N4CCOCC4)ccc32)n1)c1ccccc1`, for which the inhibition at 50 µM at Jak3 is less than 50%; at hck, greater than 50%; on kdr it was greater than 50%; on Jak2, less than 50%; at abl it was greater than 50%.
For the compound `c1cn(-c2cncc(Nc3ccc(N4CCOCC4)cc3)n2)cn1`, the inhibition at 50 µM on Jak3 is less than 50%; on hck, greater than 50%; at kdr, less than 50%; on Jak2, greater than 50%; at abl, greater than 50%.
As for `C[C@H](Nc1cncc(-n2cnc3cc(NC(=O)c4cccnc4)ccc32)n1)c1ccccc1`, the inhibition at 50 µM on Jak3 was less than 50%; at hck, greater than 50%; on kdr it was greater than 50%; at Jak2 it was greater than 50%; on abl, greater than 50%.
Regarding `C[C@@H](Nc1cncc(-n2cnc(-c3ccccc3)c2)n1)c1ccccc1`, the inhibition at 50 µM at Jak3 was less than 50%; on hck, greater than 50%; at kdr, greater than 50%; on Jak2, less than 50%; on abl it was greater than 50%.
Turning to `Cc1cn(-c2cncc(NCc3ccc(F)cc3)n2)cn1`, the inhibition at 50 µM on Jak3 was less than 50%; on hck it was less than 50%; on kdr, less than 50%; on Jak2 it was greater than 50%; at abl it was less than 50%.
`Cc1nccn1-c1cncc(N[C@H](C)c2ccccc2)n1`: the inhibition at 50 µM on Jak3 is less than 50%; on hck, greater than 50%; on kdr, less than 50%; at Jak2, less than 50%; on abl, less than 50%.
For the compound `Cc1cncn1-c1cncc(NCc2ccc(F)cc2)n1`, the inhibition at 50 µM at Jak3 is less than 50%; at hck, greater than 50%; on kdr it was less than 50%; at Jak2, less than 50%; at abl it was greater than 50%.
Turning to `C[C@H](Nc1cncc(-n2cnc3ccc(NC(=O)C4CC4)cc32)n1)c1ccccc1`, the inhibition at 50 µM on Jak3 was less than 50%; on hck it was greater than 50%; on kdr, greater than 50%; on Jak2 it was less than 50%; on abl, greater than 50%.
Take `C[C@H](Nc1cncc(-n2cnc3cc(NC(=O)C4CC4)ccc32)n1)c1ccccc1`: the inhibition at 50 µM at Jak3 is less than 50%; at hck, greater than 50%; on kdr it was greater than 50%; at Jak2, less than 50%; on abl, greater than 50%.
`C[C@H](Nc1cncc(-n2cnc3ccc(C4=NCCO4)cc32)n1)c1ccccc1`: the inhibition at 50 µM on Jak3 is less than 50%; at hck, greater than 50%; on kdr, greater than 50%; on Jak2 it was greater than 50%; at abl, greater than 50%.
For the compound `C[C@H](Nc1cncc(-n2cnc3cc(C(=O)NCCO)ccc32)n1)c1ccccc1`, the inhibition at 50 µM at Jak3, at hck, at kdr, at Jak2 and on abl was greater than 50% each time.
For `CCN(CC)Cc1ccc2ncn(-c3cncc(NC(C)c4ccc(F)cc4)n3)c2c1` (stereo not shown), the inhibition at 50 µM on Jak3 was less than 50%; at hck, greater than 50%; on kdr, greater than 50%; on Jak2, greater than 50%; on abl, less than 50%.
Consider `CC(Nc1cncc(-n2cnc3ccccc32)n1)c1ccc(-c2ccccc2)cc1` (stereo not shown), for which the inhibition at 50 µM at Jak3 was less than 50%; at hck, greater than 50%; on kdr it was less than 50%; on Jak2, less than 50%; at abl, greater than 50%.
For the compound `CNCCN(C)Cc1ccc2ncn(-c3cncc(NC(C)c4ccc(F)cc4)n3)c2c1` (stereo not shown), the inhibition at 50 µM at Jak3 was less than 50%; at hck, greater than 50%; on kdr, greater than 50%; at Jak2 it was greater than 50%; at abl it was less than 50%.

These data come from patent publication US7511047B2, “Kinase inhibitors” (Cytopia Research Pty Ltd, priority 2002, dated 2009).
